A word on the IC50: it is the concentration needed to halve the response being measured. A low value points to greater potency.

Data on one molecule can be found in US7649095B2, “Piperidine derivatives and agent comprising the derivative as active ingredient” (Ono Pharmaceutical Co., Ltd., priority 2003, dated 2010).

The target of the experiment is PDE4. The experiment is described as follows: In vitro enzyme assay: PDE4 inhibitory activity. It counts as biochemical. Particulars: PDE4 enzyme solution from U937 cells (originated from human monocyte), 3H-cAMP substrate, room temperature 30 minutes. The protocol:
U937 cells (originated from human monocyte) were cultured in PRMI 1640 medium containing 10% fetal bovine serum. The U937 cells were harvested and homogenized in 20 mM Tris-HCl buffer [pH 8.0, containing PMSF (1 mM), leupeptin (1 μg/ml) and pepstatin A (1 μg/ml)]. After centrifugation (at 15,000 rpm for 10 minutes), the supernatant was recovered and filtered through a 0.45 μm filter. The sample was applied to MonoQ (manufactured by Pharmacia, strong anion exchange resin) column and eluted by a density gradient of 0 to 0.8 M NaCl. Fractions from which the PDE activity was disappeared by 10 μM rolipram (a PDE4-selective inhibitor) were recovered and used as the enzyme solution for the measurement of PDE4 inhibitory activity.
The enzyme activity was measured by the following method. […] To an alumina column (100 μl), 50 μl of the supernatant was applied, eluted with 80 μl of 0.005 N hydrochloric acid, and radioactivity of the eluate was measured.
PDE4 inhibitory activity ratio of the compound of the present invention was calculated by the following equation: PDE4 inhibitory activity ratio (%)=(1−radioactivity in the presence of the compound of the present invention/radioactivity in the absence of the compound of the present invention)×100 […]

Where a name gives a salt, the structure may show the parent alone.

With `COc1ccc(C2(C#N)CCN(CC(=O)NO)CC2)cc1OC1CCCC1` [Example 3, N-hydroxy-2-(4-(3-cyclopentyloxy-4-methoxyphenyl)-4-cyanopiperidin-1-yl)acetamide·hydrochloride], half-maximal inhibition (IC50) required 0.03 nM.
